System: participants with SSc-RP
Experiment: Scleroderma Health Assessment Questionnaire (SHAQ): disability indices and visual analog scales
Assay type: in vivo, human
Conditions: Day 12 vs baseline; PP Population, Part A; SSc patients; sensitivity analysis
Source text: The standard, validated, patient reported outcome measures tool for SSc patients, the Scleroderma Health Assessment Questionnaire (SHAQ), will be used to assess the participant qualify of life. Details are attached in the Appendix. The participant quality of life will be scored, and a disability index calculated for each questionnaire completed by the patient at Screening and each in-clinic visit. The absolute change in participant quality of life from baseline to the end of each dosing period will be calculated similar to frequency data as before.
The SHAQ includes a Raynaud's VAS, which will be reported at screening and each in-clinic visit. The absolute change in Raynaud-VAS, assessed by the participants response to the SHAQ question ‘In the past 7 days, how much have your Raynaud's interfered with your daily activities?’ at baseline and the end of each dosing period will be calculated similar to frequency data as before.
The SHAQ is used to calculate a Disability Index to assess the participant qualify of life. The eight categories assessed by the Disability Index are 1) dressing and grooming, 2) arising, 3) eating, 4) walking, 5) hygiene, 6) reach, 7) grip, and 8) common daily activities. For each of these categories, patients report the amount of difficulty they have in performing two or three specific activities.
There are four possible responses for the Disability Index questions: • Without any difficulty=0 • With some difficulty=1 • With much difficulty=2 • Unable to do=3. • The highest score reported by the patient for any component question of the eight categories determines the score for that category. • If a component question is left blank or the response is too ambiguous to assign a score, then the score for that category is determined by the remaining completed question(s). • If all component questions are blank or if more than one answer is given, then follow up with the respondent is required. • If the respondent's mark is between the response columns, then move it to the closest one. If it's directly between the two, move it to the higher one.
Each of the disability items on the SHAQ has a companion aids/devices variable that is used to record what type(s) of assistance, if any, the participant uses for his/her usual activities. These variables (see below) are coded as follows: • 0=No assistance is needed. • 1=A special device is used by the patient in his/her usual activities. • 2=The patient usually needs help from another person. • 3=The patient usually needs BOTH a special device AND help from another person.
The scoring variables and scoring rules permit the computation of two disability indices, the Standard Disability Index and the Alternative Disability Index.
This question results in a new set of category scores that are computed by adjusting the score for each category, if necessary, based on the patient's use of an aid or device or assistance for that category. If either devices and/or help from another person are checked for a category, the score is set to “2”, unless the score is already “3” (i.e., scores of “0” or “1” are increased to “2”). For example, if the highest score for the dressing category is “1”, and the patient says they use a device for dressing, the computed category score would be “2”. The sum of the computed categories scores is then calculated and divided by the number of categories answered. This gives a score in the 0 to 3 range.
The aid and device variables are not used to calculate the alternative disability index; it is calculated by adding the scores for each of the categories and dividing by the number of categories answered. This gives a score in the 0 to 3 range.
The standard, validated, patient reported outcome measures tool for SSc patients, the SHAQ, was collected at the time points specified in the study schedules (FIG. 2 and FIGS. 4A and 4B) to assess the participant's quality of life. The SHAQ included a Raynaud's VAS that will also be reported separately.

COCCOC(=O)C1=C(C)NC(C)=C(C(=O)OC/C=C/c2ccccc2)C1c1cccc([N+](=O)[O-])c1 (stereo not drawn) [Any Cilnidipine]
SHAQ Alternative Disability Index, Change from Baseline, Max: 0.38 | SHAQ Alternative Disability Index, Change from Baseline, Mean: −0.006 | SHAQ Alternative Disability Index, Change from Baseline, Median: 0.000 | SHAQ Alternative Disability Index, Change from Baseline, Min: −0.29 | SHAQ Alternative Disability Index, Change from Baseline, Q1: −0.125 | SHAQ Alternative Disability Index, Change from Baseline, Q3: 0.000 | SHAQ Alternative Disability Index, Percent Change from Baseline, Max: 300.0% | SHAQ Alternative Disability Index, Percent Change from Baseline, Mean: 21.32% | SHAQ Alternative Disability Index, Percent Change from Baseline, Median: −10.00% | SHAQ Alternative Disability Index, Percent Change from Baseline, Min: −100.0% | SHAQ Alternative Disability Index, Percent Change from Baseline, Q1: −28.57% | SHAQ Alternative Disability Index, Percent Change from Baseline, Q3: 42.86% | SHAQ Visual Analogue Scale - Finger Ulcers, Change from Baseline, Max: 0.40 | SHAQ Visual Analogue Scale - Finger Ulcers, Change from Baseline, Mean: −0.540 | SHAQ Visual Analogue Scale - Finger Ulcers, Change from Baseline, Median: −0.100 | SHAQ Visual Analogue Scale - Finger Ulcers, Change from Baseline, Min: −3.20 | SHAQ Visual Analogue Scale - Finger Ulcers, Change from Baseline, Q1: −0.700 | SHAQ Visual Analogue Scale - Finger Ulcers, Change from Baseline, Q3: 0.000 | SHAQ Visual Analogue Scale - Finger Ulcers, Percent Change from Baseline, Max: 133.3% | SHAQ Visual Analogue Scale - Finger Ulcers, Percent Change from Baseline, Mean: −33.91% | SHAQ Visual Analogue Scale - Finger Ulcers, Percent Change from Baseline, Median: −36.11% | SHAQ Visual Analogue Scale - Finger Ulcers, Percent Change from Baseline, Min: −100.0% | SHAQ Visual Analogue Scale - Finger Ulcers, Percent Change from Baseline, Q1: −100.00% | SHAQ Visual Analogue Scale - Finger Ulcers, Percent Change from Baseline, Q3: −12.50% | SHAQ Visual Analogue Scale - Intestinal Problems, Change from Baseline, Max: 2.90 | SHAQ Visual Analogue Scale - Intestinal Problems, Change from Baseline, Mean: −0.556 | SHAQ Visual Analogue Scale - Intestinal Problems, Change from Baseline, Median: −0.100 | SHAQ Visual Analogue Scale - Intestinal Problems, Change from Baseline, Min: −4.40 | SHAQ Visual Analogue Scale - Intestinal Problems, Change from Baseline, Q1: −1.100 | SHAQ Visual Analogue Scale - Intestinal Problems, Change from Baseline, Q3: 0.200 | SHAQ Visual Analogue Scale - Intestinal Problems, Percent Change from Baseline, Max: 181.3% | SHAQ Visual Analogue Scale - Intestinal Problems, Percent Change from Baseline, Mean: −18.65% | SHAQ Visual Analogue Scale - Intestinal Problems, Percent Change from Baseline, Median: −54.13% | SHAQ Visual Analogue Scale - Intestinal Problems, Percent Change from Baseline, Min: −100.0% | SHAQ Visual Analogue Scale - Intestinal Problems, Percent Change from Baseline, Q1: −100.00% | SHAQ Visual Analogue Scale - Intestinal Problems, Percent Change from Baseline, Q3: 40.00% | SHAQ Visual Analogue Scale - Overall Disease Severity, Change from Baseline, Max: 1.90 | SHAQ Visual Analogue Scale - Overall Disease Severity, Change from Baseline, Mean: −0.991 | SHAQ Visual Analogue Scale - Overall Disease Severity, Change from Baseline, Median: −1.100 | SHAQ Visual Analogue Scale - Overall Disease Severity, Change from Baseline, Min: −3.10 | SHAQ Visual Analogue Scale - Overall Disease Severity, Change from Baseline, Q1: −1.650 | SHAQ Visual Analogue Scale - Overall Disease Severity, Change from Baseline, Q3: −0.400 | SHAQ Visual Analogue Scale - Overall Disease Severity, Percent Change from Baseline, Max: 100.0% | SHAQ Visual Analogue Scale - Overall Disease Severity, Percent Change from Baseline, Mean: −36.33% | SHAQ Visual Analogue Scale - Overall Disease Severity, Percent Change from Baseline, Median: −42.89% | SHAQ Visual Analogue Scale - Overall Disease Severity, Percent Change from Baseline, Min: −100.0% | SHAQ Visual Analogue Scale - Overall Disease Severity, Percent Change from Baseline, Q1: −58.95% | SHAQ Visual Analogue Scale - Overall Disease Severity, Percent Change from Baseline, Q3: −24.92% | SHAQ Visual Analogue Scale - Pain, Change from Baseline, Max: 0.90 | SHAQ Visual Analogue Scale - Pain, Change from Baseline, Mean: −0.575 | SHAQ Visual Analogue Scale - Pain, Change from Baseline, Median: −0.600 | SHAQ Visual Analogue Scale - Pain, Change from Baseline, Min: −2.80 | SHAQ Visual Analogue Scale - Pain, Change from Baseline, Q1: −1.200 | SHAQ Visual Analogue Scale - Pain, Change from Baseline, Q3: 0.150 | SHAQ Visual Analogue Scale - Pain, Percent Change from Baseline, Max: 20.5% | SHAQ Visual Analogue Scale - Pain, Percent Change from Baseline, Mean: −22.77% | SHAQ Visual Analogue Scale - Pain, Percent Change from Baseline, Median: −22.58% | SHAQ Visual Analogue Scale - Pain, Percent Change from Baseline, Min: −72.2% | SHAQ Visual Analogue Scale - Pain, Percent Change from Baseline, Q1: −53.33% | SHAQ Visual Analogue Scale - Pain, Percent Change from Baseline, Q3: 11.54% | SHAQ Visual Analogue Scale - Raynaud’s, Change from Baseline, Max: 1.50 | SHAQ Visual Analogue Scale - Raynaud’s, Change from Baseline, Mean: −0.696 | SHAQ Visual Analogue Scale - Raynaud’s, Change from Baseline, Median: −0.300
